Measurements taken from US20060167083A1, “Therapeutic methods and compositions involving isoflav-3-ene and isoflavan structures” (priority 2002, published 2006).
In brackets after ≈: the same amount, converted by molar mass. Several values for one entry are separate records, joined by “and”; a condition that tells them apart may be missing. Identical values can stand only once. Entries after “also recorded” stand apart in the source; their conditions may differ.

What was measured:
human topo II [1] = biological target: T1, human topo II (Homo sapiens, UniProt P11388); test: Topo II-mediated P4 unknotting assay; type: biochemical
T1 construct: purchased Topogen (Columbus, Ohio)
Experimental: FIG. 1 represents an unknotting assay for determining the effect of dehydroequol on topo II catalytic activity. Substrate P4 DNA was incubated with two units of purified topo II in the absence (lane 1) or presence of 100, 80, 60, 40, 20, and 10 μg/ml dehydroequol (lanes 3-8). Lane 2, 10 μg/ml VP-16 (positive control). Topo II activity was determined by converting knotted P4 DNA (K) to the unknotted (U) form.
The stepwise removal of DNA knots (unknotting) requires transient double-strand breakage followed by strand passage and relegation. Type II topoisomerases uniquely catalyse this reaction. […] DNA from a mutant bacteriophage (P4 Virl del1O) is used as a reaction substrate that migrates as a smear (due to the variable number of knots). In the presence of topo II, topological DNA knots are removed, and the reaction product (unknotted DNA) migrates as a single band. Complete inhibition was evident at 100 μg/ml dehydroequol. It was determined from densitometric measurements of the unknotted band that 50% inhibition (IC50) was at about 20 μg/ml dehydroequol.
To determine topoisomerase (topo) II catalytic activity, knotted DNA that had been isolated from the tailless capsids of the bacteriophage P4 Virl del1O was used as the substrate. Reaction mixtures contained 50 mM Tris-HCl, pH 8.0, 120 mM KCl, 10 mM MgCl2, 0.5 mM ATP, and 0.5 mM dithiothreitol. The topo II inhibitor was added prior to the addition of 2 units of human topo II. Reactions (20 μl final volume) were initiated by adding 0.6 μg of knotted DNA and carried out at 37° C. for 30 min. […] For the quantitative determination of topo II activity, photographic negatives were densitometrically scanned. Unknotted DNA, migrating as a single band at the top of the gel, was measured in this manner. The concentration of the inhibitor preventing 50% of the substrate (knotted DNA) from being converted into the reaction product (unknotted DNA) was determined from a standard curve. By averaging three to four such experiments, the IC50 values were determined.

human topo II [2] = biological target: T1, human topo II; test: Topo II-mediated plasmid linearisation assay; type: biochemical
Experimental: FIG. 3 represents an assay for determining the effect of dehydroequol on double-stranded DNA cleavage. pRYG DNA was incubated with ten units of human topo II (lanes 2-6) in the absence (lane 1) or presence of 10, 30, or 100 μg/ml dehydroequol (lanes 2-4), or 30 μg/ml genistein (lane 5), or 10 μg/ml VP-16 (lane 6). Lane 7, linear pUC8 DNA marker. Double-strand DNA breakage was determined by converting relaxed (REL) or supercoiled (SC) pRYG DNA to the linear (LIN) form.
A linearisation assay was employed to determine if dehydroequol is a topo II poison. Double-strand breakage results in the appearance of linear DNA. […] This effect, which was evident at 10 μg/ml, peaked at 30 μg/ml.
Topo II poisons enhance topo II-mediated DNA cleavage and can be identified with the linearisation assay under the reaction conditions provided by the supplier of the enzyme (Topogen, Inc.). Briefly, 20-μl reaction mixtures contained 30 mM Tris-HCl, pH 7.6, 3 mM ATP, 15 mM β-mercaptoethanol, 8 mM MgCl2, 60 mM NaCl, 1 μl of the test agent (or solvent), 0.3 μg of pRYG, and 10 units of human topo II (added last). After a 15-min incubation at 37° C., SDS-proteinase K was added, and following a 15 min incubation at 37° C., samples were extracted with CHCl3-isopropanol and electrophoresis was performed on a 1% agarose gel containing ethidium bromide. Gels were photographed, and photographic negatives were scanned.

tNOX = biological target: T2, tNOX (Homo sapiens, UniProt Q16206); test: tNOX inhibition, 96-well plate assay with HeLa in dithiodipyridine substrate; type: cell-based; details: 10 μm
T2 construct: endogenous in cells; host or cells: HeLa (human cervical carcinoma)
Text: A 96-well plate assay was used containing human cervical carcinoma (HeLa) in a dithiodipyridine substrate.

breast cancer line MCF7 = test: Anti-proliferative effect on MCF7; type: cell-based; details: Homo sapiens
colon cancer line CaCo-2 = test: Anti-proliferative effect on CaCo-2; type: cell-based; details: Homo sapiens
prostate cancer line PC3 = test: Anti-proliferative effect on PC3; type: cell-based; details: Homo sapiens, PC-3
[3] = tested on: K562, HL60, MCF7, HT29, CaCo-2, DU145, PC3 and LNCaP cell lines; test: Cytotoxic potency compared with genistein on the cancer cell line panel; type: cell-based; details: on these cell lines
[4] = tested on: LNCaP human prostate cells; test: Athymic mice xenograft assay; type: in vivo, athymic Balb/c mice; details: 2 mg uid orally, 5 days per week, 58 days; treated versus control group, p<0.0003
Experimental: Athymic mice xenograft assay: LNCaP human prostate cells were implanted subcutaneously into athymic Balb/c mice and De (2 mg uid) administered orally from the time of cell inoculation for 5 days per week. Animals were killed 58 days post-implantation and tumour mass (mg) calculated from the formula (width^2×length)/2 as used in NCI.

[5] = tested on: Human umbilical vein endothelial cells (HUVEC); test: In vitro capillary tube formation assay in collagen gel; type: cell-based; details: 10 μg/ml, PMA and RMACII present
Experimental: In vitro tube assay: Capillary tube formation in a collagen gel was performed essentially as described by Gamble et al^30,31. Tubes were formed in the presence of the tumour promoter phorbol myristate acetate (PMA) and the anti β1 integrin antibody RMACII. De (10 μg/ml final) was added at the time of plating the cells onto the gel.

MMP-2 = test: Northern blot analysis of MMP-2 mRNA in endothelial cells; type: cell-based, human; details: 10 μg/ml for 18 hours; two experiments; listed as De
Experimental: Northern blot analysis: HUVEC were plated at 1×10^6 cells per 25 cm^2 flask and grown for 48 hours. Following treatment with DMSO vehicle or De (10 μg/ml final) for 18 hours, total RNA was harvested and purified using TRIZOL reagent (Invitrogen—Life Technologies, Groningen, Netherlands) according to the manufacturer's protocol. Northern blot analysis was performed using 8 μg total RNA transferred onto Hybond-N membranes (Amersham Biosciences, Buckinghamshire, England) and probed with human MMP-2 and GAPDH cDNAs using a Strip-EZ PCR stripAble PCR Probe synthesis and removal Kit (Ambion, Tex., USA).

sphingomyelinase = test: TNF-stimulated sphingomyelinase activity; type: cell-based; details: data not shown

T1 sequence (P11388 whole entry): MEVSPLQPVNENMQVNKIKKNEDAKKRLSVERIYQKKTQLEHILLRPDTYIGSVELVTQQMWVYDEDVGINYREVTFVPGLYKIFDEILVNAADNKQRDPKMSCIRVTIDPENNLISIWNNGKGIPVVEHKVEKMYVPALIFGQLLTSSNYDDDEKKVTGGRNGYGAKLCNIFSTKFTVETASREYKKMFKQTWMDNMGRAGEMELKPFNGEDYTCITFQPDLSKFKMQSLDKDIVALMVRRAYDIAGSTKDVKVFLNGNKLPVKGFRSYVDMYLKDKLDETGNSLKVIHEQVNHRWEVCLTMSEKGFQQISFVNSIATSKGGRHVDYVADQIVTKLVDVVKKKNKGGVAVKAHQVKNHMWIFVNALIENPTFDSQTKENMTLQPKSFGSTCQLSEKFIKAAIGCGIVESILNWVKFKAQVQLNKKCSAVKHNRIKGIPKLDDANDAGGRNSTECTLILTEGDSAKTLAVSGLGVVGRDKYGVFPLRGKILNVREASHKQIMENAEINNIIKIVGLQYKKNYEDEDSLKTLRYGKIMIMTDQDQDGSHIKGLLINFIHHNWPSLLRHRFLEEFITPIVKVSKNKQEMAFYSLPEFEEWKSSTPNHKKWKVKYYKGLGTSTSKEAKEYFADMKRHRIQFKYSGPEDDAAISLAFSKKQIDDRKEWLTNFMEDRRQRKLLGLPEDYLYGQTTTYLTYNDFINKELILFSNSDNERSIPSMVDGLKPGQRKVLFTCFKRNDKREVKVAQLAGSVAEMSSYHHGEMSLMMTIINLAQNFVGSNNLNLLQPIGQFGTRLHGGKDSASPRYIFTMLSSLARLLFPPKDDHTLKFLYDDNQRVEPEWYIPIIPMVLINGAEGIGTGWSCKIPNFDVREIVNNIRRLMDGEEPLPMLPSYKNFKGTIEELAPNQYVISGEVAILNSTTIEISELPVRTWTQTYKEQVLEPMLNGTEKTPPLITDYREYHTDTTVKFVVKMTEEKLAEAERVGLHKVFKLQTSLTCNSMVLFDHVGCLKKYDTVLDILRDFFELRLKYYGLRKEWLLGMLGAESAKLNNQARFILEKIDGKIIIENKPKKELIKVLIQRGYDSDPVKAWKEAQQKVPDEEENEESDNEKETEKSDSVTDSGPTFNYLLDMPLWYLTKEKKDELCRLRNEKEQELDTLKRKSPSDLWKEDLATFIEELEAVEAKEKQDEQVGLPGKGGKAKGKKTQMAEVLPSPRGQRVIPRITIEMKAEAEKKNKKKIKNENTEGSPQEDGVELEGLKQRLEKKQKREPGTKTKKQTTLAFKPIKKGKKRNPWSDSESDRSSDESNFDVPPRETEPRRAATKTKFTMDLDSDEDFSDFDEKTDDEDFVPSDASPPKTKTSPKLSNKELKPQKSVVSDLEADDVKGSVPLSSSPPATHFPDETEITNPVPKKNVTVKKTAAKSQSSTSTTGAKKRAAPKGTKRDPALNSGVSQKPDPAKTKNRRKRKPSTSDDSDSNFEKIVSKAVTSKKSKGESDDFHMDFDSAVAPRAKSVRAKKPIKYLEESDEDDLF
T2 sequence (Q16206 whole entry): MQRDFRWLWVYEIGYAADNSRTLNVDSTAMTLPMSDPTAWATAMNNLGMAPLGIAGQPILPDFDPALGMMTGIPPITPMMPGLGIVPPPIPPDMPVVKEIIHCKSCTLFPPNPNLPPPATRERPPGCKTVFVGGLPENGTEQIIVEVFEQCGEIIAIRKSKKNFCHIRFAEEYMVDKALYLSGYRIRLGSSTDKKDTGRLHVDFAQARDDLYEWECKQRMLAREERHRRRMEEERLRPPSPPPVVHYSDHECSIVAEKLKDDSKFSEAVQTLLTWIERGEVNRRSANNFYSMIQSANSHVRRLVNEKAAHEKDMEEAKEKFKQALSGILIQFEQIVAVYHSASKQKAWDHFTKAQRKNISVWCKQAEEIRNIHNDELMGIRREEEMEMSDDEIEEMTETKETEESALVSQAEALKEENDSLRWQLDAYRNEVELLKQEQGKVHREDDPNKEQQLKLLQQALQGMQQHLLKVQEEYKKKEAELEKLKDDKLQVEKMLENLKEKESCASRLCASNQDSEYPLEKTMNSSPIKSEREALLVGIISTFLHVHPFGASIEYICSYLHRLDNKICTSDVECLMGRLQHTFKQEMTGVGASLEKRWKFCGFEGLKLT

Oc1ccc(C2=Cc3ccc(O)cc3OC2)cc1 [Dehydroequol, 4′,7-dihydroxyisoflav-3-ene] was tested, and the “concentration at which complete inhibition of topo II unknotting was evident” value (human topo II [1]) was 100 µg/mL, the “effect on topo II catalytic activity compared with positive control” value (human topo II [1]; VP-16 10 μg/ml as positive control) was “comparable to that of VP-16” and the IC50 (human topo II [1]; densitometric measurements of the unknotted band, read-out: 50% inhibition (IC50) of topo II unknotting (converted)) was about 83.2 µM. For the same molecule, the “concentration producing detectable (comparable) topo II-mediated linear plasmid DNA” value (human topo II [2]) was 20 µg/mL, the “effect on topo II-mediated DNA strand breakage compared with positive controls” value (human topo II [2]; genistein 30 μg/ml, VP-16 10 μg/ml) was “much greater than genistein; also recorded: comparable to VP-16” and the “concentration at which production of linear plasmid DNA peaked” value (human topo II [2]; pRYG DNA, proteinase K/SDS) was 30 µg/mL. For the same molecule, the “concentration at which production of linear plasmid DNA was evident” value (human topo II [2]; pRYG DNA, proteinase K/SDS) was 10 µg/mL, the “inhibition of tNOX activity” value (tNOX) was “inhibit tNOX activity” and the IC50 (breast cancer line MCF7) was 1.5 µg/mL (≈ 6.24 µM). For the same molecule, the IC50 (colon cancer line CaCo-2) was 1 µg/mL (≈ 4.16 µM), the IC50 (prostate cancer line PC3) was 2 µg/mL (≈ 8.32 µM) and the “potency as a cytotoxic agent relative to genistein” value [3] was 5-20 times. The tumour growth inhibition [4] was 49%, the “inhibition of capillary tube formation” value [5] was “inhibits” and the “decrease in level of mRNA for MMP-2” value (MMP-2) was 68.3% and 46.7%. For the same molecule, the “effect on TNF-stimulated sphingomyelinase activity” value (sphingomyelinase) was “does not affect”.
